The record followed here is patent US20250295799A1, “ANTIBODY-DRUG CONJUGATES TARGETING GLYPICAN-3 AND METHODS OF USE” (Zymeworks BC Inc., priority 2022, published 2025).

What all share (assay): In vitro cytotoxicity of camptothecin analogues (CellTiter-Glo)
Assay type in all cases: cell-based

Assay [1] deals with MDA-MB-468 (breast cancer). Particulars: Homo sapiens, MDA-MB-468, 96 h, read-out: pIC50 MDA-MB-468 (converted). How it is done: (§1) In vitro potency was assessed on multiple cancer cell lines: SK-BR-3 (breast cancer), SKOV-3 (ovarian cancer), Calu-3 (lung cancer), ZR-75-1 (breast cancer) and MDA-MB-468 (breast cancer). Serial dilutions of camptothecin analogues were prepared in RPMI 1640+10% FBS, and 20 μL of each dilution was added to 384-well plates. Cells cultured in log-phase growth were detached by brief incubation in 0.05% Trypsin and resuspended in respective culturing media at 20,000 cells/mL (with the exception of ZR-75 cells, which were resuspended at 10,000 cells/mL). 50 μL of cell suspension was then added to the plates containing test articles. Cells were incubated with test articles for 4 d at 37° C. (with the exception of ZR-75 cells, which were incubated for 5 d). Growth inhibition was assessed by CellTiter-Glo® (Promega Corporation, Madison, WI) and luminescence was measured on a plate reader. IC50 values were determined by GraphPad Prism (GraphPad Software, San Diego CA).

The subject of the next assay is SK-BR-3 (breast cancer). Particulars: Homo sapiens, SK-BR-3, 96 h, read-out: pIC50 SKBR-3 (converted). As for the experimental part: as §1
For a further assay, the system named is ZR-75-1 (breast cancer). Particulars: Homo sapiens, ZR-75-1, 120 h, read-out: pIC50 ZR-75 (converted). How it is done:
as §1

A further assay has as its system Calu-3 (lung cancer). The conditions noted are these: Homo sapiens, Calu-3, 96 h, read-out: pIC50 Calu-3 (converted). How it is done: as §1
For the next assay, the system named is SKOV-3 (ovarian cancer). Particulars: Homo sapiens, SK-OV-3, 96 h, read-out: pIC50 SKOV-3 (converted). How it is done: as §1

Consider `CC[C@@]1(O)C(=O)OCc2c1cc1n(c2=O)Cc2c-1nc1cc(F)c(C)cc1c2CNS(N)(=O)=O` [Compound 131, (S)-((4-ethyl-8-fluoro-4-hydroxy-9-methyl-3,14-dioxo-3,4,12,14-tetrahydro-1H-pyrano[3′,4′:6,7]indolizino[1,2-b]quinolin-11-yl)methyl)sulfamide], for which the IC50 in assay [1] was 9.12 nM; in the assay on SK-BR-3 (breast cancer), 1.05 nM; in the assay on ZR-75-1 (breast cancer), 0.955 nM; with Calu-3 (lung cancer) it was 9.12 nM.

`CC[C@@]1(O)C(=O)OCc2c1cc1n(c2=O)Cc2c-1nc1cc(F)c(OC)cc1c2CNS(=O)(=O)c1ccc(N)cc1` [Compound 128, (S)-4-amino-N-((4-ethyl-8-fluoro-4-hydroxy-9-methoxy-3,14-dioxo-3,4,12,14-tetrahydro-1H-pyrano[3′,4′:6,7]indolizino[1,2-b]quinolin-11-yl)methyl)benzenesulfonamide]: the IC50 in assay [1] was 8.32 nM; in the assay with SK-BR-3 (breast cancer) it was 5.25 nM; in the assay on ZR-75-1 (breast cancer), 4.27 nM; in the assay on SKOV-3 (ovarian cancer) it was 18.2 nM.

For `CC[C@@]1(O)C(=O)OCc2c1cc1n(c2=O)Cc2c-1nc1cc(F)c(N)cc1c2CN=[N+]=[N-]` [Compound 152, (S)-9-amino-11-(azidomethyl)-4-ethyl-8-fluoro-4-hydroxy-1,12-dihydro-14H-pyrano[3′,4′:6,7]indolizino[1,2-b]quinoline-3,14(4H)-dione], the IC50 in assay [1] was 5.01 nM; in the assay on SK-BR-3 (breast cancer) it was 3.24 nM; in the assay with Calu-3 (lung cancer), 1.48 nM; in the assay on SKOV-3 (ovarian cancer), 2.88 nM.

In the case of `CC[C@@]1(O)C(=O)OCc2c1cc1n(c2=O)Cc2c-1nc1cc(F)c(C)cc1c2CNS(=O)(=O)c1ccccc1` [Compound 125, (S)-N-((4-ethyl-8-fluoro-4-hydroxy-9-methyl-3,14-dioxo-3,4,12,14-tetrahydro-1H-pyrano[3′,4′:6,7]indolizino[1,2-b]quinolin-11-yl)methyl)benzenesulfonamide], the IC50 is 3.8 nM in assay [1]; 1.32 nM in the assay with SK-BR-3 (breast cancer); 1.32 nM with ZR-75-1 (breast cancer); 2.82 nM in the assay with Calu-3 (lung cancer); 7.08 nM with SKOV-3 (ovarian cancer).

For `CC[C@@]1(O)C(=O)OCc2c1cc1n(c2=O)Cc2c-1nc1cc(F)c(C)cc1c2CNS(=O)(=O)c1ccc(N)cc1` [Compound 127, (S)-4-amino-N-((4-ethyl-8-fluoro-4-hydroxy-9-methyl-3,14-dioxo-3,4,12,14-tetrahydro-1H-pyrano[3′,4′:6,7]indolizino[1,2-b]quinolin-11-yl)methyl)benzenesulfonamide], the IC50 in assay [1] was 3.8 nM; with SK-BR-3 (breast cancer) it was 3.31 nM; in the assay on ZR-75-1 (breast cancer), 5.25 nM; in the assay on Calu-3 (lung cancer), 9.33 nM; in the assay on SKOV-3 (ovarian cancer) it was 14.5 nM.

With `CC[C@@]1(O)C(=O)OCc2c1cc1n(c2=O)Cc2c-1nc1cc(F)c(C)cc1c2CN1C2CCC1(CO)CC2` [Compound 121], the IC50 in assay [1] was 0.269 nM; in the assay on SK-BR-3 (breast cancer) it was 0.148 nM; with Calu-3 (lung cancer), 0.145 nM; in the assay on SKOV-3 (ovarian cancer) it was 0.195 nM.

With `CC[C@@]1(O)C(=O)OCc2c1cc1n(c2=O)Cc2c-1nc1cc(F)c(OC)cc1c2CNC(=O)NCc1ccc(N)cc1` [Compound 135, (S)-1-(4-aminobenzyl)-3-((4-ethyl-8-fluoro-4-hydroxy-9-methoxy-3,14-dioxo-3,4,12,14-tetrahydro-1H-pyrano[3′,4′:6,7]indolizino[1,2-b]quinolin-11-yl)methyl)urea], the IC50 in assay [1] is 10.7 nM; in the assay with SK-BR-3 (breast cancer) it was 12.3 nM; in the assay on ZR-75-1 (breast cancer), 13.2 nM.

Take `CC[C@@]1(O)C(=O)OCc2c1cc1n(c2=O)Cc2c-1nc1cc(F)c(C)cc1c2CN1CCSCC1CO` (stereo partly drawn) [Compound 114, (4S)-4-ethyl-8-fluoro-4-hydroxy-11-((3-(hydroxymethyl)thiomorpholino)methyl)-9-methyl-1,12-dihydro-14H-pyrano[3′,4′:6,7]indolizino[1,2-b]quinoline-3,14(4H)-dione]: the IC50 in assay [1] was 0.417 nM; with SK-BR-3 (breast cancer) it was 0.107 nM; with Calu-3 (lung cancer), 0.0933 nM; with SKOV-3 (ovarian cancer), 0.178 nM.
